Columns and labels:
[1] = target: T1, peripheral-type benzodiazepine receptors (PBR or p sites) (Rattus norvegicus, UniProt P16257); experiment: Binding of [3H]Ro5-4864 to peripheral-type benzodiazepine receptors in rat kidney membranes
T1 construct: After decapitation, the kidney is removed and the tissue is homogenized; from tissue; host or cells: kidney membrane homogenate of male Sprague-Dawley rats

[2] = test system: motor neurons of the facial nucleus; experiment: Test of survival of the motor neurons after sectioning the facial nerve in rats aged 4 days; format: in vivo, rat; conditions: immature rats, facial nerve section, treated for 7 days
Method: Study of the Neuroprotective Activity
Test of Survival of the Motor Neurons after Sectioning the Facial Nerve in Rats Aged 4 Days
After lesion of the facial nerve in immature rats, the motor neurons of the facial nucleus experience neuronal death by apoptosis. Neuronal survival is evaluated using neuronal counting and histological methods.
Immature rats aged 4 days are anaesthetized with pentobarbital (3 mg/kg by the i.p. route). The right facial nerve is exposed and sectioned at its outlet from the stylomastoid foramen. After waking up, the young rats are returned to their mothers and are treated for 7 days with one or two daily administrations, by the oral or intraperitoneal route, at doses ranging from 1 to 10 mg/kg.
7 days after the lesion, the animals are decapitated and the brains are frozen in isopentane at −40° C. The entire facial […] is cut with a cryostat into sections with a width of 10 μm. The motor neurons are stained with cresyl violet and counted using the Histo™ software (Biocom™)

T1 sequence (P16257 whole entry): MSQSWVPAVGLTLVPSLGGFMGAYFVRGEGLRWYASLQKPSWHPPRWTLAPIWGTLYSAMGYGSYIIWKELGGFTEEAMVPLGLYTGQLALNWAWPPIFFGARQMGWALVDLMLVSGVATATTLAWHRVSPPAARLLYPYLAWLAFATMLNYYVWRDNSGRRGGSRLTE

Row | SMILES | melting point [°C] | IC50 [1] [nM] | % increase in the survival of the neurons (10 mg/kg po) [2] [%]
1 | CCN(CC)C(=O)Oc1c2c(nn1-c1ccncc1)CCc1cc(Cl)ccc1-2.Cl | 250 to 251 |  | 
2 | CC(C)N(C(=O)Oc1nn(-c2ccncc2)c2c1-c1ccc(Cl)cc1CC2)C(C)C.Cl | 146 to 148 |  | 
3 | CCN(CC)C(=O)Oc1c2c(nn1-c1ccccc1)CCc1cc(Cl)ccc1-2 [compound 14] |  | 1.6 | 38
4 | CCN(CC)C(=O)Oc1c2c(nn1-c1ccc(F)cc1)CCc1ccccc1-2 [compound 20] |  | 2.8 | 59
5 | CCN(CC)C(=O)Oc1c2c(ccc3cc(Cl)ccc32)nn1-c1ccc(F)cc1 [compound 56] |  | 1.4 | 74

— patent publication US8258168B2, “2H or 3H-benzo[E]indazol-1-YL carbamate derivatives, the preparation and therapeutic use thereof” (Sanofi, priority 2004, dated 2012)
